Reference: patent US20230322776A1, “NEW ARYL-PYRIDO-PYRIMIDIN-ONE DERIVATIVES” (Hoffmann-La Roche Inc., priority 2020, published 2023)

What was measured:
BRAF V660E = BRAF V660E (Homo sapiens, UniProt P15056, V600E); test: KD BRAF V660E (Table 1; no method described); format: binding
BRAF = BRAF (Homo sapiens, UniProt P15056); test: KD BRAF (Table 1; no method described); format: binding
[1] = test system: A375 cells (V600E mutated BRAF), ERK phospho-T202/Y204; test: HTRF assay for P-ERK determination in A375 cells (BRAF inhibition); format: cell-based; conditions: Homo sapiens, A-375, 1 hour drug incubation, DMSO = 100%, 10 μM Dabrafenib = 0%, top concentration 10 μM, read-out: P-ERK_A375: IC50
Description: (§1) A375 is a cellular cancer model expressing V600E mutated BRAF and HCT116 a cellular cancer model expressing WT BRAF. First generation BRAF inhibitors such as e.g. dabrafenib induce a paradox effect on tumour cells in that they inhibit the growth of V600E mutated BRAF cells (such as e.g. A375), while they activate growth in WT BRAF cells (such as e.g. HCT 116). ERK 1,2 phosphorylation (terminal member of the phosphorylation cascade of the MAPK pathway) is hereafter reported as main readout for the activation status of the MAPK pathway. DMEM no-phenol red medium supplemented with L-glutamine was purchased from (Thermo Fisher Scientific). Fetal bovine serum (FBS) was purchased from VWR. Advanced ERK phospho-T202/Y204 kit—10,000 tests was purchased from Cisbio cat #64AERPEH. A375 (catalog #CRL-1619) and HCT116 (catalog #CCL-247) cells were originally obtained from American type Culture Collection (ATCC) and banked by the Roche repository. 384-Well microplates ultized were purchased from Greiner Bio-One, 384-well, (With Lid, HiBase, Low volume cat 784-080).
(§2) HTRF Assay for P-ERK Determination in A375 or HCT116 Cells
(§3) Prior to the assay, A375 and HCT116 cell lines are maintained in DMEM no-phenol red medium supplemented with 10% fetal bovine serum (FBS). Following compound treatment, P-ERK levels are determined by measuring FRET fluorescence signal induced by selective binding of two antibodies provided in the mentioned kit (Cisbio cat #64AERPEH) on ERK protein when phosphorylated at Thr202/Tyr204. Briefly, 8000 cells/well in 12 μl media/well are plated in the 384-well plate and left overnight in the incubator (at 37° C. with 5% CO2-humidified atmosphere), the following day the plate is treated in duplicate with test compounds, dabrafenib and PLX8394 (the latter two as controls) at the following final drug concentrations: 10 μM, 3 μM, 1 μM, 0.3 μM, 0.1 μM, 0.03 μM, 0.01 μM, 0.003 μM and 0.001 μM. All wells are subjected to DMSO normalization and drug incubation occurs for 1 hour. Then, 4 μl of a 4× lysis buffer supplied with the kit are added to the wells, the plate is then centrifuged for 30 second (3000 rpm) and incubated on a plate shaker for 1 h at rt.
(§4) At the end of the incubation 4 μl/well of advanced P-ERK antibody solution (prepared according to manufacturer's instruction) followed by 4 μl/well of criptate P-ERK antibody solution (prepared according to manufacturer's instruction) (Cisbio cat #64AERPEH) are added to test wells.
(§5) In order to allow proper data normalization, control wells non drug treated reported in the following table are always included in each plate (according to manufacturer's instruction):
(§6) The plate is then centrifuged at 3000 rpm for 30 seconds, sealed to prevent evaporation and incubated overnight in the dark at room temperature. The plate is then analyzed and fluorescence emission value collected through a Pherastast FSX (BMG Labtech) apparatus at […]. The obtained fluorescence values are processed according to the formula Ratio=[…]*10000 then the average of the ratio on the blank is subtracted to all values.
Data are normalized in the case of A375 cells (BRAF inhibition) considering the average of the ratio (blank subtracted) derived by DMSO only treated cells as 100% and by considering the average of the ratio (blank subtracted) derived by 10 μM Dabrafenib treated cells as 0%. Mean of the normalized points are fitted with sigmoidal curve and IC50 values are determined.

[2] = test system: HCT116 cells (WT BRAF), ERK phospho-T202/Y204; test: HTRF assay for P-ERK determination in HCT116 cells (BRAF activation, paradox); format: cell-based; conditions: for EC50: Homo sapiens, HCT-116, HCT116 cells, 1 hour drug incubation, activation relative to maximum Dabrafenib-mediated activation (100%), top concentration 10 μM, read-out: P-ERK_HCT-116: EC50—50PCT; for Fold Selectivity HCT-116 EC50-50/ A375: ratio of P-ERK HCT-116 EC50-50PCT to P-ERK A375 IC50
Description: as §1, §2, §3, §4, §5, §6
Data are normalized in the case of HCT116 cells (BRAF activation) considering the average of the ratio (blank subtracted) derived by DMSO only treated cells as 0% and by considering the average of the ratio (blank subtracted) derived by Dabrafenib treated cells at the concentration which provides the highest signal as 100%. Individual points are fitted with either sigmoidal or bell shape curves, the percentage of activation compared to maximum Dabrafenib-mediated activation is determined.

BRAF V660E, sequence (P15056 2-766 V600E): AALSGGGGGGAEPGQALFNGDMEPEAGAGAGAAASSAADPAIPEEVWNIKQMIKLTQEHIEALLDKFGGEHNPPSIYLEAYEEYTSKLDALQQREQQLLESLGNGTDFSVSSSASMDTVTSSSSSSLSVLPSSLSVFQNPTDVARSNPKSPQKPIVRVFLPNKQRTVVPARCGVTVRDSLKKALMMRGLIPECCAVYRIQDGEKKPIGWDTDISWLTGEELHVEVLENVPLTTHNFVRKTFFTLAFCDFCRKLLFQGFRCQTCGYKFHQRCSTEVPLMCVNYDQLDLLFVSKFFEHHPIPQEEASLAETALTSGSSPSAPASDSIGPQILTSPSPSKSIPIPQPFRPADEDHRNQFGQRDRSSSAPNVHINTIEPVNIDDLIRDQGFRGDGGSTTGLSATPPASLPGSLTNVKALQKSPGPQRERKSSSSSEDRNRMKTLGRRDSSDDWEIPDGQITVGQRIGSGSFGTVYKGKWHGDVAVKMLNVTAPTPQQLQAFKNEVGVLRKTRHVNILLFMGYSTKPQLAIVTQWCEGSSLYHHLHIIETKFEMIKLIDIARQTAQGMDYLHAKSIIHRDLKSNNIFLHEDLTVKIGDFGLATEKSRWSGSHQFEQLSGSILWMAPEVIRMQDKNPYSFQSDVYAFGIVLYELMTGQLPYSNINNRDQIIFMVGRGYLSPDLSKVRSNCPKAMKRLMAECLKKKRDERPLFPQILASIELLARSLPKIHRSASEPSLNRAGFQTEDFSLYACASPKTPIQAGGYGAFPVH
BRAF, sequence (P15056 whole entry): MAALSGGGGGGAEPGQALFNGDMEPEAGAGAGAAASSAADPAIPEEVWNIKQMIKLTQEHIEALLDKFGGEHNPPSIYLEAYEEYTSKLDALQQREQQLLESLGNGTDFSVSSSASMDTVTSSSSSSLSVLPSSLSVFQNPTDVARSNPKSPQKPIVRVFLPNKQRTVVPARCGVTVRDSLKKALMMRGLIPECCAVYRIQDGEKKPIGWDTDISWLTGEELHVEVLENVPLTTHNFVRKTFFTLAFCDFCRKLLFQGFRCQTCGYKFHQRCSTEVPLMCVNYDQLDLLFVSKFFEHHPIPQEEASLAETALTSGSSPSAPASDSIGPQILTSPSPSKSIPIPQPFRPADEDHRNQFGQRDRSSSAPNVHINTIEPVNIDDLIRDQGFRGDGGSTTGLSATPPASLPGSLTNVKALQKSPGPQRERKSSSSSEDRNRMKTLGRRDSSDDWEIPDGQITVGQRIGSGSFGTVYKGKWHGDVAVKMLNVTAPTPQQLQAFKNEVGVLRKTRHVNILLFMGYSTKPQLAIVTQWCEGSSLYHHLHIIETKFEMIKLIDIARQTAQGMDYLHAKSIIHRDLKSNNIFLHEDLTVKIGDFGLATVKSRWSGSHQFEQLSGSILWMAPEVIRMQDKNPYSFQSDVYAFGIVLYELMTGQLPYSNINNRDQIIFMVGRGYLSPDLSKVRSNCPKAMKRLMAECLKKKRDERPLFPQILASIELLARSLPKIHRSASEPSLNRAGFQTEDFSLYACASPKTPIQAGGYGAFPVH

SMILES	Kd (BRAF V660E)	Kd (BRAF)	IC50 [1]	EC50 [2]	Fold Selectivity HCT-116 EC50-50/ A375 [2]
CC(=O)NCCCCCNc1ncc2cc(-c3c(F)ccc(NS(=O)(=O)N4CC[C@@H](F)C4)c3F)c(=O)n(C)c2n1 [Example 25, N-[5-[[6-[2,6-difluoro-3-[[(3R)-3-fluoropyrrolidin-1-yl]sulfonylamino]phenyl]-8-methyl-7-oxopyrido[2,3-d]pyrimidin-2-yl]amino]pentyl]acetamide]	26.8 nM	12.2 nM	44 nM	3180 nM	72.3
Cn1c(=O)c(-c2c(F)ccc(NS(=O)(=O)N3CC[C@@H](F)C3)c2F)cc2cnc(NCCC3CCN(C(=O)OC(C)(C)C)CC3)nc21 [Example 1, tert-Butyl 4-[2-[[6-[2,6-difluoro-3-[[(3R)-3-fluoropyrrolidin-1-yl]sulfonylamino]phenyl]-8-methyl-7-oxopyrido[2,3-d]pyrimidin-2-yl]amino]ethyl]piperidine-1-carboxylate]	190 nM	108 nM	63.3 nM	3360 nM	53.1
Cn1c(=O)c(-c2c(F)ccc(NS(=O)(=O)N3CC[C@@H](F)C3)c2F)cc2cnc(NCCc3ccccc3)nc21 [Example 2, (3R)-N-[2,4-difluoro-3-[8-methyl-7-oxo-2-(2-phenylethylamino)pyrido[2,3-d]pyrimidin-6-yl]phenyl]-3-fluoropyrrolidine-1-sulfonamide]	23 nM	7.9 nM	6 nM	491 nM	81.8
CC(=O)N1CCN(CCNc2ncc3cc(-c4c(F)ccc(NS(=O)(=O)N5CC[C@@H](F)C5)c4F)c(=O)n(C)c3n2)CC1 [Example 31, (3R)-N-[3-[2-[2-(4-acetylpiperazin-1-yl)ethylamino]-8-methyl-7-oxopyrido[2,3-d]pyrimidin-6-yl]-2,4-difluorophenyl]-3-fluoropyrrolidine-1-sulfonamide]	52.2 nM	21 nM	79.8 nM	6400 nM	80.2
Cl.Cn1c(=O)c(-c2c(F)ccc(NS(=O)(=O)N3CC[C@@H](F)C3)c2F)cc2cnc(NCCC3CCNCC3)nc21 [Example 14, (3R)—N-[2,4-difluoro-3-[8-methyl-7-oxo-2-(2-piperidin-4-ylethylamino)pyrido[2,3-d]pyrimidin-6-yl]phenyl]-3-fluoropyrrolidine-1-sulfonamide hydrochloride]	107 nM	37.7 nM	790 nM	≥ 10000 nM	12.7
CC(=O)NCCOCCNc1ncc2cc(-c3c(F)ccc(NS(=O)(=O)N4CC[C@@H](F)C4)c3F)c(=O)n(C)c2n1 [Example 29, N-[2-[2-[[6-[2,6-difluoro-3-[[(3R)-3-fluoropyrrolidin-1-yl]sulfonylamino]phenyl]-8-methyl-7-oxopyrido[2,3-d]pyrimidin-2-yl]amino]ethoxy]ethyl]acetamide]	60.1 nM	20.1 nM	375 nM	≥ 10000 nM	>26.7
CC(=O)N1CCC(O)(CCNc2ncc3cc(-c4c(F)ccc(NS(=O)(=O)N5CC[C@@H](F)C5)c4F)c(=O)n(C)c3n2)CC1 [Example 26, (3R)-N-[3-[2-[2-(1-acetyl-4-hydroxypiperidin-4-yl)ethylamino]-8-methyl-7-oxopyrido[2,3-d]pyrimidin-6-yl]-2,4-difluorophenyl]-3-fluoropyrrolidine-1-sulfonamide]	27.5 nM	9.4 nM	271 nM	≥ 10000 nM	>36.9
Cn1c(=O)c(-c2c(F)ccc(NS(=O)(=O)N3CCCC3)c2F)cc2cnc(NCCC3CCN(C(=O)OC(C)(C)C)CC3)nc21 [Example 8, tert-butyl 4-[2-[[6-[2,6-difluoro-3-(pyrrolidin-1-ylsulfonylamino)phenyl]-8-methyl-7-oxopyrido[2,3-d]pyrimidin-2-yl]amino]ethyl]piperidine-1-carboxylate]	314 nM	261 nM	241 nM	9760 nM	40.5

Second part, the molecule after the results:

Kd (BRAF V660E)	Kd (BRAF)	IC50 [1]	EC50 [2]	Fold Selectivity HCT-116 EC50-50/ A375 [2]	SMILES
60.1 nM	24.9 nM	3170 nM	≥ 10000 nM	>3.2	CC(=O)N1CCC(NC(=O)CCCNc2ncc3cc(-c4c(F)ccc(NS(=O)(=O)N5CC[C@@H](F)C5)c4F)c(=O)n(C)c3n2)CC1 [Example 33, N-(1-acetylpiperidin-4-yl)-4-[[6-[2,6-difluoro-3-[[(3R)-3-fluoropyrrolidin-1-yl]sulfonylamino]phenyl]-8-methyl-7-oxopyrido[2,3-d]pyrimidin-2-yl]amino]butanamide]
12.9 nM	5.5 nM	108 nM	404 nM	3.7	CC(=O)N[C@H]1C[C@H](n2c(=O)c(-c3c(F)ccc(NS(=O)(=O)N4CC[C@@H](F)C4)c3F)cc3cnc(NCC4CC4)nc32)C1 [Example 43, trans-N-[3-[2-(cyclopropylmethylamino)-6-[2,6-difluoro-3-[[(3R)-3-fluoropyrrolidin-1-yl]sulfonylamino]phenyl]-7-oxopyrido[2,3-d]pyrimidin-8-yl]cyclobutyl]acetamide]
2820 nM	1420 nM	826 nM	≥ 10000 nM	12.1	CC(C)(C)OC(=O)N1CCC(n2c(=O)c(-c3c(F)ccc(NS(=O)(=O)N4CC[C@@H](F)C4)c3F)cc3cnc(NCC4CC4)nc32)C1 (mixture of isomers) [Example 38, tert-Butyl (3RS)-3-[2-(cyclopropylmethylamino)-6-[2,6-difluoro-3-[[(3R)-3-fluoropyrrolidin-1-yl]sulfonylamino]phenyl]-7-oxopyrido[2,3-d]pyrimidin-8-yl]pyrrolidine-1-carboxylate]
23.2 nM	9.2 nM	38.5 nM	4470 nM	116.0	COC(=O)Cc1cccc(CCNc2ncc3cc(-c4c(F)ccc(NS(=O)(=O)N5CC[C@@H](F)C5)c4F)c(=O)n(C)c3n2)c1 [Example 47, methyl 2-[3-[2-[[6-[2,6-difluoro-3-[[(3R)-3-fluoropyrrolidin-1-yl]sulfonylamino]phenyl]-8-methyl-7-oxopyrido[2,3-d]pyrimidin-2-yl]amino]ethyl]phenyl]acetate]
–	–	26.8 nM	1480 nM	55.1	Cn1c(=O)c(-c2c(F)ccc(NS(=O)(=O)N3CC[C@@H](F)C3)c2F)cc2cnc(NCCN3CCN(C(=O)OC(C)(C)C)CC3)nc21 [Example 45, tert-butyl 4-[2-[[6-[2,6-difluoro-3-[[(3R)-3-fluoropyrrolidin-1-yl]sulfonylamino]phenyl]-8-methyl-7-oxopyrido[2,3-d]pyrimidin-2-yl]amino]ethyl]piperazine-1-carboxylate]
